What was measured:
CHIKV-nLuc = experiment: microbe, parasite or virus in culture; format: cell-based; settings: Chikungunya virus, MRC5, 6 h, read-out: EC50 (CHIKV-nLuc replication)
[1] = molecular target: HEK293 cell lysate proteins (Homo sapiens, UniProt A8K2U0); format: binding
[2] = molecular target: HEK293 cell lysate proteins (Homo sapiens, UniProt P04040); format: binding
[3] = molecular target: HEK293 cell lysate proteins (Homo sapiens, UniProt P04264); format: binding
[4] = molecular target: HEK293 cell lysate proteins (Homo sapiens, UniProt P05109); format: binding
[5] = molecular target: HEK293 cell lysate proteins (Homo sapiens, UniProt P14923); format: binding
[6] = molecular target: HEK293 cell lysate proteins (Homo sapiens, UniProt P22528); format: binding
[7] = molecular target: HEK293 cell lysate proteins (Homo sapiens, UniProt P22735); format: binding
[8] = molecular target: HEK293 cell lysate proteins (Homo sapiens, UniProt P23490); format: binding
[9] = molecular target: HEK293 cell lysate proteins (Homo sapiens, UniProt P60709); format: binding
[10] = molecular target: HEK293 cell lysate proteins (Homo sapiens, UniProt P81605); format: binding
[11] = molecular target: HEK293 cell lysate proteins (Homo sapiens, UniProt Q02413); format: binding
[12] = molecular target: HEK293 cell lysate proteins (Homo sapiens, UniProt Q12872); format: binding
[13] = molecular target: HEK293 cell lysate proteins (Homo sapiens, UniProt Q15648); format: binding
[14] = molecular target: HEK293 cell lysate proteins (Homo sapiens, UniProt Q3KQU3); format: binding
[15] = molecular target: HEK293 cell lysate proteins (Homo sapiens, UniProt Q86VP6); format: binding
[16] = molecular target: HEK293 cell lysate proteins (Homo sapiens, UniProt Q96P63); format: binding
[17] = molecular target: HEK293 cell lysate proteins and CHIKV nsP2 (Homo sapiens, UniProt O43290); format: binding
[18] = molecular target: HEK293 cell lysate proteins and CHIKV nsP2 (Homo sapiens, UniProt O60231); format: binding
[19] = molecular target: HEK293 cell lysate proteins and CHIKV nsP2 (Homo sapiens, UniProt O60524); format: binding
[20] = molecular target: HEK293 cell lysate proteins and CHIKV nsP2 (Homo sapiens, UniProt P04040); format: binding
[21] = molecular target: HEK293 cell lysate proteins and CHIKV nsP2 (Homo sapiens, UniProt P05109); format: binding
[22] = molecular target: HEK293 cell lysate proteins and CHIKV nsP2 (Homo sapiens, UniProt P06733); format: binding
[23] = molecular target: HEK293 cell lysate proteins and CHIKV nsP2 (Homo sapiens, UniProt P08621); format: binding
[24] = molecular target: HEK293 cell lysate proteins and CHIKV nsP2 (Homo sapiens, UniProt P21127); format: binding
[25] = molecular target: HEK293 cell lysate proteins and CHIKV nsP2 (Homo sapiens, UniProt P25311); format: binding
[26] = molecular target: HEK293 cell lysate proteins and CHIKV nsP2 (Homo sapiens, UniProt P31944); format: binding
[27] = molecular target: HEK293 cell lysate proteins and CHIKV nsP2 (Homo sapiens, UniProt P42357); format: binding
[28] = molecular target: HEK293 cell lysate proteins and CHIKV nsP2 (Homo sapiens, UniProt P46821); format: binding
[29] = molecular target: HEK293 cell lysate proteins and CHIKV nsP2 (Homo sapiens, UniProt P55786); format: binding
[30] = molecular target: HEK293 cell lysate proteins and CHIKV nsP2 (Homo sapiens, UniProt P68104); format: binding
[31] = molecular target: HEK293 cell lysate proteins and CHIKV nsP2 (Homo sapiens, UniProt Q14151); format: binding
[32] = molecular target: HEK293 cell lysate proteins and CHIKV nsP2 (Homo sapiens, UniProt Q14241); format: binding
[33] = molecular target: HEK293 cell lysate proteins and CHIKV nsP2 (Homo sapiens, UniProt Q8NFC6); format: binding
[34] = molecular target: HEK293 cell lysate proteins and CHIKV nsP2 (Homo sapiens, UniProt Q99459); format: binding
[35] = molecular target: HEK293 cell lysate proteins and CHIKV nsP2 (Homo sapiens, UniProt Q9NWH9); format: binding
[36] = molecular target: HEK293 cell lysate proteins and CHIKV nsP2 (Homo sapiens, UniProt Q9UKV3); format: binding
[37] = molecular target: HEK293 cell lysate proteins and CHIKV nsP2 (Homo sapiens, UniProt Q9Y520); format: binding

Chain of HEK293 cell lysate proteins (Homo sapiens, UniProt Q02413) (Q02413 50-1049): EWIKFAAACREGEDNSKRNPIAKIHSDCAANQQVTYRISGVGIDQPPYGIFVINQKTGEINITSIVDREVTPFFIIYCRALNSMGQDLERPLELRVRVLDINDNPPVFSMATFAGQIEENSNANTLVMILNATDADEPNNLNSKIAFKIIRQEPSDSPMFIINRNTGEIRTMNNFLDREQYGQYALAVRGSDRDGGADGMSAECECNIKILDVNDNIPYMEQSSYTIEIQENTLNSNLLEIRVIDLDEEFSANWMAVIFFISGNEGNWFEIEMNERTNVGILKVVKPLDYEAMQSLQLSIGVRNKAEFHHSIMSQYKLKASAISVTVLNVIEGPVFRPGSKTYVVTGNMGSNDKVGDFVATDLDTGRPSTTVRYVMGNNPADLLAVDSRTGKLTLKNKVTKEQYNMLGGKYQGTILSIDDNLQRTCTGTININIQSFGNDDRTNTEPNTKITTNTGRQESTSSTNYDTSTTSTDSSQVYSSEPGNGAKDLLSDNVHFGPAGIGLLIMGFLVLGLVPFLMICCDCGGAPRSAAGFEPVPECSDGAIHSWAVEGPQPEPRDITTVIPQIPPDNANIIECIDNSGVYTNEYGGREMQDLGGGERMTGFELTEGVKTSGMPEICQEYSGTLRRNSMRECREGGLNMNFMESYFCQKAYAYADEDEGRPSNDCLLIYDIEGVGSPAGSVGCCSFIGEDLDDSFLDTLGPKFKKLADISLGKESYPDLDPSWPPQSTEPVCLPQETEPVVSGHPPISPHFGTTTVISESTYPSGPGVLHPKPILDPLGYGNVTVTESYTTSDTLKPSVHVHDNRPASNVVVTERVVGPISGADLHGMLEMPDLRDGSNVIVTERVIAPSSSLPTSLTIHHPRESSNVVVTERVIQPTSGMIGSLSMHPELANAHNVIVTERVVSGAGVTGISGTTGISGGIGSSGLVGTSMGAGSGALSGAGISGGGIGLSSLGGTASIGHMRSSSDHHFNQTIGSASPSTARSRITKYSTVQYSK
Chain of HEK293 cell lysate proteins (Homo sapiens, UniProt P81605) (P81605 20-110): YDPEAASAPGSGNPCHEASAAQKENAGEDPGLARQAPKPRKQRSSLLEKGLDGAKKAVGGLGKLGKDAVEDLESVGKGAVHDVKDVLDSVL
Chain of HEK293 cell lysate proteins and CHIKV nsP2 (Homo sapiens, UniProt P46821) (P46821 whole entry): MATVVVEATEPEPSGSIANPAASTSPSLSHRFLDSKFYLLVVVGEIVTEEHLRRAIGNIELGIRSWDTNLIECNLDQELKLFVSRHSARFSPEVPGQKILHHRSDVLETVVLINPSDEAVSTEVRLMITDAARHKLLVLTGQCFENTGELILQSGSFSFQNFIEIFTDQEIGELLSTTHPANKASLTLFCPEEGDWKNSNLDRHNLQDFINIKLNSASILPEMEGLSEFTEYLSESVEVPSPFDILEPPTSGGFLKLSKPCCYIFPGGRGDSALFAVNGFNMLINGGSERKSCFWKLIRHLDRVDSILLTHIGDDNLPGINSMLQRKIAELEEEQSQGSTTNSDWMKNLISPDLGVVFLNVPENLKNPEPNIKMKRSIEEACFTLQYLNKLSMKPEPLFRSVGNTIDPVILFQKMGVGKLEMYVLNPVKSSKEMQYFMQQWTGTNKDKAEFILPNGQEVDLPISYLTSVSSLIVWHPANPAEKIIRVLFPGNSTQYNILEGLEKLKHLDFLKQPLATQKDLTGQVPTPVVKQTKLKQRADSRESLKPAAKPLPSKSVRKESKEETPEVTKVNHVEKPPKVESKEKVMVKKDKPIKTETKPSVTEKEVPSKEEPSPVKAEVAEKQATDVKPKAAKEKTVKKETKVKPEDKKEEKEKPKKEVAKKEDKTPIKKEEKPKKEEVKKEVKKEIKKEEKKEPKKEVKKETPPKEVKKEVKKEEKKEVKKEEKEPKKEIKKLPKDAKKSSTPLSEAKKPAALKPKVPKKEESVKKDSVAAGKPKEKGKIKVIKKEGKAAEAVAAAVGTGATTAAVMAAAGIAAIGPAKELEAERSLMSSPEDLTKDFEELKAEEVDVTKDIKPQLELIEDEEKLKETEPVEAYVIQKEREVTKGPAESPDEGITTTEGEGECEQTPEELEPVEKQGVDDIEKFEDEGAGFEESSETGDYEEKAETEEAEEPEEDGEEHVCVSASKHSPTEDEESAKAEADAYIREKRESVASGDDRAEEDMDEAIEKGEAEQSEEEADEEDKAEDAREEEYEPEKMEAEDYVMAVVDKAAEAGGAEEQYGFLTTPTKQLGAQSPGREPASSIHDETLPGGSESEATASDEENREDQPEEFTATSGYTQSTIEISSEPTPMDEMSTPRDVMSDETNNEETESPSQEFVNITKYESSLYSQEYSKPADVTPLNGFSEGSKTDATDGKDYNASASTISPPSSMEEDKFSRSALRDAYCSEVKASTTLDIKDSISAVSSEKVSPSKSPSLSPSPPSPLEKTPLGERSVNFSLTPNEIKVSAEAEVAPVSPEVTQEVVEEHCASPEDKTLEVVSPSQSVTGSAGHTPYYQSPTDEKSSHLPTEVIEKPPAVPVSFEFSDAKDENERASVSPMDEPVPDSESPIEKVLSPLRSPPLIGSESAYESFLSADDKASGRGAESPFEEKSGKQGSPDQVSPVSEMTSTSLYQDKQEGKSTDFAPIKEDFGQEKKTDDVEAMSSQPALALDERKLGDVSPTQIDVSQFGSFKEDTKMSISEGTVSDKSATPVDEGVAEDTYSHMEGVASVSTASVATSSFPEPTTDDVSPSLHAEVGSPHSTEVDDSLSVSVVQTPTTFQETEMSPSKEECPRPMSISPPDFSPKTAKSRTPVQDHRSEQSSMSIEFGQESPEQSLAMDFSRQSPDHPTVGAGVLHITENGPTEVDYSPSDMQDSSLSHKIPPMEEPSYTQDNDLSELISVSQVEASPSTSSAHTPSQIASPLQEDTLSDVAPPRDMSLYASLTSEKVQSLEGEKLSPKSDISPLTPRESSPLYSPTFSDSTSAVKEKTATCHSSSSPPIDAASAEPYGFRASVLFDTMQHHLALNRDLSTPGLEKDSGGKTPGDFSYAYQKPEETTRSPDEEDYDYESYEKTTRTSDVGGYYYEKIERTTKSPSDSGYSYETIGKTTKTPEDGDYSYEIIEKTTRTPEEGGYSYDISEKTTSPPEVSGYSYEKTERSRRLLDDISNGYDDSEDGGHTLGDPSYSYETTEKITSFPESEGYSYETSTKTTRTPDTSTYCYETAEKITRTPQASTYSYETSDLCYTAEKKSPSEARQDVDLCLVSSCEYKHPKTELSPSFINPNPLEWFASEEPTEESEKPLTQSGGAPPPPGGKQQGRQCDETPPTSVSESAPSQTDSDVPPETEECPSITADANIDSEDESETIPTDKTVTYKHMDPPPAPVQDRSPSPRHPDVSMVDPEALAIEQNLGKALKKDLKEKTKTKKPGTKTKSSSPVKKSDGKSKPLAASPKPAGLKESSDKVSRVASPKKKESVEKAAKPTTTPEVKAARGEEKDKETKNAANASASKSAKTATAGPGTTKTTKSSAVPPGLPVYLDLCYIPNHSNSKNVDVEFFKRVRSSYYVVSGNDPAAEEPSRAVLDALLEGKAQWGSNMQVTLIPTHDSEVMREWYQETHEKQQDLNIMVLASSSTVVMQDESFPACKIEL
Chain of HEK293 cell lysate proteins (Homo sapiens, UniProt P22735) (P22735 whole entry): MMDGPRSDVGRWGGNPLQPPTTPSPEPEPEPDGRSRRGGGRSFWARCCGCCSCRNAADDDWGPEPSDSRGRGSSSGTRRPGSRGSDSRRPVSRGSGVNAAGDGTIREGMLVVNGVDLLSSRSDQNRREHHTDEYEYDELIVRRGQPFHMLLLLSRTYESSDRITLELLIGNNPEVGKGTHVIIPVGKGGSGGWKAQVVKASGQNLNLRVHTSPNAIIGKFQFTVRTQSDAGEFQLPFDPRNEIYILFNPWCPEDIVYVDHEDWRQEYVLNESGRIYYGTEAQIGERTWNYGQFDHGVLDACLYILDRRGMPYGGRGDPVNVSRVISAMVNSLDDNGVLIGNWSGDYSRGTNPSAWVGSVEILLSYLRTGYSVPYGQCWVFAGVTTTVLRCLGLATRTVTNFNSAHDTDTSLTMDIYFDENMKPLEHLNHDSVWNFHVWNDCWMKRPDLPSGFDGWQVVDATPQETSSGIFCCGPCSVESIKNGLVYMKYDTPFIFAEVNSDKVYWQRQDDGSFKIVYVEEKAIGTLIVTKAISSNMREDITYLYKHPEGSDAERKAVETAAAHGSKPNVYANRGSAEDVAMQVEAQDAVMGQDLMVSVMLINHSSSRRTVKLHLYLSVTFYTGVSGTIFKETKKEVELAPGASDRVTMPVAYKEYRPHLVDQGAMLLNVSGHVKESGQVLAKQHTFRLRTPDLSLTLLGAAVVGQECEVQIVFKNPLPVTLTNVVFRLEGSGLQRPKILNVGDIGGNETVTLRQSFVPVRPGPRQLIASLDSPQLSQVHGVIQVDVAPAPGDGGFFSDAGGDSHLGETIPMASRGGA
Chain of HEK293 cell lysate proteins and CHIKV nsP2 (Homo sapiens, UniProt P06733) (P06733 whole entry): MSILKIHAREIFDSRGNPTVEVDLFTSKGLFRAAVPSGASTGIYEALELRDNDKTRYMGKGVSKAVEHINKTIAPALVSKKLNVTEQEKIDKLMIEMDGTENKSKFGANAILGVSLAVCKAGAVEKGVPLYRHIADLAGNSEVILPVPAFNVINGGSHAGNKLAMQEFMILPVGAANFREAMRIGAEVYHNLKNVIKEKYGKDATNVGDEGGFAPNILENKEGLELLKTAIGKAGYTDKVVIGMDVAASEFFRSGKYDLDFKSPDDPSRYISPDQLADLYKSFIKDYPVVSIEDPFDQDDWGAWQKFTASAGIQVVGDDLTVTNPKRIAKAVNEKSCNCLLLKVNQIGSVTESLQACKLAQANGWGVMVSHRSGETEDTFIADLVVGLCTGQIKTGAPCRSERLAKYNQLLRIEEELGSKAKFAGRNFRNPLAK
Chain of HEK293 cell lysate proteins and CHIKV nsP2 (Homo sapiens, UniProt P31944) (P31944 6-242): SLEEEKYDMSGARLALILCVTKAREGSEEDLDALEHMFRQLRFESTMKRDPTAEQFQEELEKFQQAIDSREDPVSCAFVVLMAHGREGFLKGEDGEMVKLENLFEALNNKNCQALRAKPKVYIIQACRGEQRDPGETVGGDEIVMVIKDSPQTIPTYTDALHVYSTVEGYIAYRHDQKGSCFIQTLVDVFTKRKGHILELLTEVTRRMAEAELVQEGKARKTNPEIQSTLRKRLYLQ

Compound: C#CCOc1ccccc1-c1cc(C(=O)NC/C=C/S(C)(=O)=O)on1 [VS, (E)-N-(3-(methylsulfonyl)allyl)−3-(2-(prop-2-yn-1-yloxy)phenyl)isoxazole-5-carboxamide]
- EC50 (CHIKV-nLuc): 33 nM
- Log2 fold change [1]: 1.10
- Log2 fold change [2]: 1.41
- Log2 fold change [3]: 1.49
- Log2 fold change [4]: 1.58
- Log2 fold change [5]: 1.97
- Log2 fold change [6]: 2.72
- Log2 fold change [7]: 1.60
- Log2 fold change [8]: 2.79
- Log2 fold change [9]: 1.54
- Log2 fold change [10]: 1.36
- Log2 fold change [11]: 1.36
- Log2 fold change [12]: -1.75
- Log2 fold change [13]: -1.21
- Log2 fold change [14]: -2.07
- Log2 fold change [15]: -1.19
- Log2 fold change [16]: 1.71
- Log2 fold change [17]: 0.62
- Log2 fold change [18]: 4.33
- Log2 fold change [19]: -0.75
- Log2 fold change [20]: 1.41
- Log2 fold change [21]: 1.58
- Log2 fold change [22]: 1.36
- Log2 fold change [23]: 3.47
- Log2 fold change [24]: 0.12
- Log2 fold change [25]: 1.43
- Log2 fold change [26]: 1.29
- Log2 fold change [27]: 1.12
- Log2 fold change [28]: -0.63
- Log2 fold change [29]: 2.43
- Log2 fold change [30]: 0.56
- Log2 fold change [31]: 1.50
- Log2 fold change [32]: -1.01
- Log2 fold change [33]: 0.23
- Log2 fold change [34]: -0.00878
- Log2 fold change [35]: -0.40
- Log2 fold change [36]: -1.88
- Log2 fold change [37]: 0.50

Source: publication PMC11873239, “A covalent chemical probe for Chikungunya nsP2 cysteine protease with antialphaviral activity and proteome-wide selectivity” (Scientific Reports, 2025)
